Data set [1] has as its system Human monocytic cells, THP-1. The data set is described as follows: LPS-induced TNFα secretion by THP-1 cells (ELISA). The conditions noted are these: LPS stimulation for 60 min.
In data set [2] the test system is S. Typhimurium SL1344. Briefly: Intracellular survival/replication of S. Typhimurium SL1344 in IFN-γ-primed RAW cells (gentamicin-resistance assay). In kind it is cell-based, Salmonella Typhimurium. The note with it: pretreated with inhibitor 30 min prior to infection (50 μM U 0126, 50 μM PD 98059).
The test system of data set [3] is RAW 264.7 mouse macrophage cells. In kind it is cell-based. The note with it: Peptide 20 μg/ml; 100 ng/ml E. coli 0111:B4 LPS, 6 h.
For data set [4], the system named is BALB/c mice. Briefly: Lethal endotoxemia in galactosamine-sensitized BALB/c mice. The conditions noted are these: 2 μg LPS; peptide 200 μg/mouse = 8 mg/kg IP 15 min after LPS; 48 hours; no peptide 10. In kind it is in vivo.
Data set [5] has as its system S. aureus. Briefly: Murine S. aureus infection model (CD-1 mice). In kind it is in vivo, mouse. The note with it: peptide 200 μg IP; for CFU/ml (blood): 3 days, No Peptide 7.61 ± 1.7 × 10^3; for # Mice Survived (3 days)/Total mice in group: No Peptide 6/8. How it is done:
(§1) BALB/c mice were given 1×10^5 Salmonella and cationic peptide (200 μg) by intraperitoneal injection. The mice were monitored for 24 hours at which point they were euthanized, the spleen removed, homogenized and resuspended in PBS and plated on Luria Broth agar plates with Kanamycin (50 μg/ml). The plates were incubated overnight at 37° C. and counted for viable bacteria (Table 49 and 50). CD-1 mice were given 1×10^8 S. aureus in 5% porcine mucin and cationic peptide (200 μg) by intraperitoneal injection (Table 51). The mice were monitored for 3 days at which point they were euthanized, blood removed and plated for viable counts. CD-1 male mice were given 5.8×10^6 CFU EHEC bacteria and cationic peptide (200 μg) by intraperitoneal (IP) injection and monitored for 3 days (Table 52). […] Many of the cationic peptides were shown not to be directly antimicrobial as tested by the Minimum Inhibitory Concentration (MIC) assay (Table 54).

Data set [6] is classed as cell-based.
The subject of data set [7] is Salmonella. The data set is described as follows: Salmonella infection in BALB/c mice (viable bacteria in spleen). The note with it: mouse, in vivo, ip. In kind it is in vivo, mouse. How it is done: as §1
Data set [8] concerns human bronchial epithelial cells (HBE). The data set is described as follows: LDH release assay (Cytotoxicity Detection Kit). In kind it is cell-based. The note with it: 100 μg/ml, 24 hours; no peptide control 1.0 ± 0.05. A digest of the protocol: (§2)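 Both read-outs were colorimetric at OD490 on HBE cells after 24 h with 100 μg of each peptide. The WST-1 assay reported viability through mitochondrial dehydrogenase cleavage of the tetrazolium salt. The LDH assay tested the removed supernatant for enzyme leaked from membrane-damaged cells.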
For orientation: Release of lactate dehydrogenase indicates damage to the cell membrane.

Data set [9] has as its system A549 human epithelial cells. The data set is described as follows: Induction of chemokines (IL-8, MCP-1) in A549 cells (ELISA). In kind it is cell-based. The note with it: peptide 10 ug/ml, 24 hr. How it is done: The murine macrophage cell line RAW 264.7, THP-1 cells (human monocytes), a human epithelial cell line (A549), human bronchial epithelial cells (16HBEo14), and whole human blood were used. HBE cells were grown in MEM with Earle's. THP-1 cells were grown and maintained in RPMI 1640 medium. The RAW and A549 cell lines were maintained in DMEM supplemented with 10% fetal calf serum. […] DMEM was aspirated from cells grown overnight and replaced with fresh medium. After incubation of the cells with peptide, the release of chemokines into the culture supernatant was determined by ELISA (R&D Systems, Minneapolis, Minn.).
For orientation: In an ELISA, binding on a coated surface is turned into a signal by an enzyme label.

For data set [10], the system named is HBE cells. The data set is described as follows: WST-1 assay (cell viability). In kind it is cell-based, human. A digest of the protocol:
as §2

Data set [11] concerns A549 epithelial cells. The data set is described as follows: Human Operon arrays (PRHU04-S1) of A549 cells treated with peptide alone (Tables 31-37, 53). The conditions noted are these: 50 μg/ml, 4 h.
For data set [12], the system named is Human Jurkat T cells. Briefly: SDF-1 induced migration of human Jurkat T cells (Transwell). In kind it is cell-based. The conditions noted are these: positive control 100%. Here is the method: SDF-1, a C-X-C chemokine is a natural ligand for HIV-1 coreceptor-CXCR4. The chemokine receptors CXCR4 and CCR5 are considered to be potential targets for the inhibition of HIV-1 replication. […] The migration assays were performed as follows. Human Jurkat T cells were resuspended to 5×10^6/ml in chemotaxis medium (RPMI 1640/10 mM Hepes/0.5% BSA). Migration assays were performed in 24 well plates using […] polycarbonate Transwell inserts (Costar). Briefly, peptide or controls were diluted in chemotaxis medium and placed in the lower chamber while 0.1 ml cells (5×10^6/ml) was added to the upper chamber. After 3 hr at 37° C., the number of cells that had migrated into the lower chamber was determined using flow cytometry. The medium from the lower chamber was passed through a FACscan for 30 seconds, gating on forward and side scatter to exclude cell debris. The number of live cells was compared to a “100% migration control” in which 5×10^5/ml cells had been pipetted directly into the lower chamber and then counted on the FACscan for 30 seconds.

[13] abbreviates: Staphylococcus aureus, overnight, 96-well plate.

Values after ≈ are worked out from the molar mass of the structure shown. Read-outs that look alike come from different tables or passages of the source. Marks after values point to notes of the source that are not given here. Residues, ends and D or L forms follow the SMILES beside them. Some results are limits rather than exact numbers.

Regarding `CC[C@@]1([C@@H]2O[C@@H]([C@H]3O[C@@](O)(CO)[C@H](C)C[C@@H]3C)C[C@@H]2C)CC[C@H]([C@]2(C)CC[C@]3(C[C@H](O)[C@@H](C)[C@@H]([C@@H](C)[C@@H](OC)[C@H](C)C(=O)O)O3)O2)O1` [Monensin], in [1], the “TNFα within cells (cytoplasmic extracts)” value is on record as “accumulation of TNFα within cells”.
`COc1cccc(-c2cc(=O)c3ccccc3o2)c1N` [PD 98059]: in [2], the “Effect: bacterial filamentation (bacterial stress)” value is “Decrease bacterial filamentation (bacterial stress)^c” and the “Effect: number of intracellular S. Typhimurium” value was “Increase in the number of intracellular S. Typhimurium”.
For `CC[C@H](C)[C@H](NC(=O)[C@H](CCCNC(=N)N)NC(=O)[C@H](CS)NC(=O)[C@H](CC(C)C)NC(=O)[C@@H](N)CC(C)C)C(=O)N[C@H](C(=O)N1CCC[C@H]1C(=O)N[C@H](C(=O)N[C@H](C(=O)N1CCC[C@H]1C(=O)N[C@@H](Cc1c[nH]c2ccccc12)C(=O)N[C@@H](CS)C(=O)N[C@@H](CCCCN)C(=O)O)[C@@H](C)CC)C(C)C)C(C)C` [SEQ ID NO: 5] (H-LLCRIVPVIPWCK-OH; N-terminus and C-terminus assumed), in data set [3], the “Inhibition of TNF-α” value is 65.6 ± 1.6%. Moreover, the Survival in data set [4] came out at 17%. Also, in data set [5], the “CFU/ml (blood)” value is recorded as 3.28 ± 1.7 × 10^3 CFU/ml and the “# Mice Survived (3 days)/Total mice in group” value is listed as 4/4. In addition, in data set [6] (24 h), the “MIC, C. rhod.” value was found to be 64 µg/mL (≈ 41.6 µM); the “MIC, E. coli” value was 128 µg/mL (≈ 83.1 µM); the “MIC, EHEC” value is 64 µg/mL (≈ 41.6 µM). In data set [6] (setting [13]), the “MIC, S. aureus” value is “>”. The “Viable Bacteria in the Spleen” value in data set [7] was 2.75 ± 0.59 × 10^4 CFU/ml.
As for `CC[C@H](C)[C@H](NC(=O)[C@H](CS)NC(=O)[C@H](CCSC)NC(=O)[C@H](CCCNC(=N)N)NC(=O)[C@@H](N)CCCNC(=N)N)C(=O)N[C@@H](CCCCN)C(=O)N[C@H](C(=O)N[C@@H](CS)C(=O)N[C@H](C(=O)N[C@@H](CCCNC(=N)N)C(=O)NCC(=O)N[C@H](C(=O)N[C@@H](CS)C(=O)N[C@@H](CCCNC(=N)N)C(=O)N[C@@H](CCCNC(=N)N)C(=O)N[C@@H](CCCCN)C(=O)N[C@@H](CS)C(=O)N[C@@H](CCCNC(=N)N)C(=O)N[C@@H](CCCCN)C(=O)O)C(C)C)C(C)C)C(C)C` [SEQ ID NO: 26] (H-RRMCIKVCVRGVCRRKCRK-OH; N-terminus and C-terminus assumed), the “Inhibition of TNF-α” value in [3] is listed as 54.9 ± 1.6%. Further, the “LDH Release (OD490 nm)” value in data set [8] amounted to 0.93 ± 0.04 OD490 nm. Besides, the Survival in data set [4] was 0%. This compound showed an IL-8 in [9] of 0.201 ng/mL. In data set [6] (24 h), the “MIC, C. rhod.” value was found to be 2 µg/mL (≈ 0.851 µM); the “MIC, E. coli” value was found to be 0.5 µg/mL (≈ 0.213 µM); the “MIC, EHEC” value is 0.5 µg/mL (≈ 0.213 µM); the “MIC, P. aerug.” value was found to be 64 µg/mL (≈ 27.2 µM). Besides, in data set [6] (24 h), the “MIC, S. aureus” value came out at 32 µg/mL (≈ 13.6 µM) and the “MIC, S. typhim.” value stood at 2 µg/mL (≈ 0.851 µM). Besides, in data set [10], the “OD490 nm (WST-1 cell viability)” value turned out to be 1.42 ± 0.11 OD490 nm. The “Viable Bacteria in the Spleen” value in [7] is reported as 7.1 ± 1.37 × 10^4 CFU/ml.
For the compound `CSCC[C@H](NC(=O)CNC(=O)[C@H](CCCNC(=N)N)NC(=O)[C@H](CCSC)NC(=O)[C@H](C)NC(=O)[C@@H](NC(=O)[C@H](CCCCN)NC(=O)[C@@H](NC(=O)[C@H](CS)NC(=O)[C@H](CCC(N)=O)NC(=O)[C@@H](N)CCCCN)C(C)C)C(C)C)C(=O)N[C@@H](C)C(=O)N[C@@H](CC(C)C)C(=O)N[C@@H](CCCNC(=N)N)C(=O)N[C@@H](CCCNC(=N)N)C(=O)N[C@@H](CS)C(=O)N[C@@H](CCCCN)C(=O)O` [SEQ ID NO: 30] (H-KQCVKVAMRGMALRRCK-OH; N-terminus and C-terminus assumed), in data set [11], the “Fold Up regulation of Gene Expression relative to Untreated Cells: Cell cycle gene (S70622)” value is listed as 8.5 fold, the “Fold Up regulation of Gene Expression relative to Untreated Cells: Dehydrogenase (D17793)” value worked out at 2.3 fold, the “Fold Up regulation of Gene Expression relative to Untreated Cells: Forkhead protein (AF042832)” value was 14.1 fold and the “Fold Up regulation of Gene Expression relative to Untreated Cells: Homeobox protein (AC004774)” value was determined as 3.2 fold. In data set [11], the “Fold Up regulation of Gene Expression relative to Untreated Cells: Hypothetical Protein (AK002104)” value is on record as 4.7 fold, the “Fold Up regulation of Gene Expression relative to Untreated Cells: Hypothetical Protein (AL022393)” value stood at 4.4 fold, the “Fold Up regulation of Gene Expression relative to Untreated Cells: IL-10 Receptor (U00672)” value was 2.6 fold and the “Fold Up regulation of Gene Expression relative to Untreated Cells: KIAA0284 Protein (AB006622)” value worked out at 3.4 fold. For the same compound, in data set [11], the “Fold Up regulation of Gene Expression relative to Untreated Cells: Peroxisome factor (AB013818)” value was 3.4 fold, the “Fold Up regulation of Gene Expression relative to Untreated Cells: Polypeptide (AF105424)” value came out at 2.5 fold, the “Fold Up regulation of Gene Expression relative to Untreated Cells: Protein (AL050261)” value is reported as 3.3 fold and the “Fold Up regulation of Gene Expression relative to Untreated Cells: Receptor (AF112461)” value is on record as 2.4 fold. In data set [11], the “Fold Up regulation of Gene Expression relative to Untreated Cells: SPR1 protein (AB031480)” value was determined as 3.0 fold, the “Fold Up regulation of Gene Expression relative to Untreated Cells: Transferase (AF038664)” value came to 12.3 fold, the “Fold Up regulation of Gene Expression relative to Untreated Cells: Transferase (M63509)” value stood at 2.7 fold and the “Fold Up regulation of Gene Expression relative to Untreated Cells: Unknown (AL096803)” value was 4.8 fold. In data set [11], the “Fold Up regulation of Gene Expression relative to Untreated Cells: Zinc finger protein (AF061261)” value was found to be 2.6 fold. Also, in [5], the “CFU/ml (blood)” value is 1.29 ± 0.04 × 10^2 CFU/ml and the “# Mice Survived (3 days)/Total mice in group” value is on record as 4/4. Moreover, the IL-8 in [9] amounted to 0.284 ng/mL. In data set [6] (24 h), the “MIC, C. rhod.” value amounted to 16 µg/mL (≈ 8.09 µM); the “MIC, E. coli” value stood at 16 µg/mL (≈ 8.09 µM); the “MIC, EHEC” value amounted to 4 µg/mL (≈ 2.02 µM); the “MIC, P. aerug.” value came out at 128 µg/mL (≈ 64.7 µM). Moreover, the “MIC, S. typhim.” value in [6] (24 h) is 16 µg/mL (≈ 8.09 µM). Moreover, the “MIC, S. aureus” value in data set [6] (setting [13]) is given as “>”. For the same compound, in data set [7], the “Viable Bacteria in the Spleen” value is given as 5.79 ± 0.43 × 10^3 CFU/ml.
Regarding `N#CC(=C(/N)Sc1ccccc1N)/C(C#N)=C(\N)Sc1ccccc1N` [U 0126], in [2], the “Effect: bacterial filamentation (bacterial stress)” value was “Decrease bacterial filamentation (bacterial stress)^c” and the “Effect: number of intracellular S. Typhimurium” value was “Increase in the number of intracellular S. Typhimurium”.
For the compound SDF-1, the “Migration (%)” value in data set [12] (Experiment 1, SDF-1 (100 ng/ml) alone) was 32%; in data set [12] (Experiment 2, SDF-1 (100 ng/ml) alone), 40%.
On to “SEQ 1D 1 (LLGDFFRKSKEKIGKEFKRIVQRIKDFLRNLVPRTES)”, for which the “Migration (%)” value in [12] (Experiment 1, SDF-1 + peptide (50 μg/ml)) worked out at 0%; in data set [12] (Experiment 2, SDF-1 + peptide (50 μg/ml)) it was 0%.

Values taken from US20070134261A1, “Effectors of innate immunity” (priority 2001, published 2007).
